Reference: patent EP1076558B1, “2-PHENYL-1-[-(2-AMINOETHOXY)-BENZYL -INDOLE IN COMBINATION WITH ESTROGENS” (Wyeth, priority 1998, dated 1999)
Counter-ions that a name gives are not always drawn.

tested on: Ishikawa cells; experiment: Ishikawa Cell Alkaline Phosphatase Assay; type: cell-based, human; conditions: Homo sapiens, Ishikawa; estrogenic activity by the alkaline phosphatase method; reference standards; read-out: ED50 values (95% C.I.)
Experimental: Cells were treated for 48 h prior to assay. […] Sample population for at each dose was n=8. […] Plates are placed at -80°C for a minimum of 15 minutes. Plates are thawed at 37°C followed by the addition of 150μL of 0.1 M Tris-HCl, pH 9.8, containing 4 mM para-nitrophenylphosphate (pNPP) to each well (final concentration. 3 mM pNPP). Absorbance and slope calculations were made using the […] Application program (Bio-Tek Instruments, Inc., Winooski, VT). […] Various compounds were assayed for estrogenic activity by the alkaline phosphatase method and corresponding ED50 values (95% C.I.) were calculated. The four listed in the following were used as as reference standards: A description of these methods is described by Holinka, […]., Kuramoto, H. and Gurpide, E. (1986) Effects of steroid hormones and antisteroids on alkaline phosphatase activity in human endometrial cancer cells (Ishikawa Line). Cancer Research, 46:2771-2774, and by […]. and […] simple and sensitive microtiter plate estrogen bioassay based on stimulation alkaline phosphatase in Ishikawa cells; […] Endocrinology, 6:2757-2762.

| SMILES | EC50 |
| --- | --- |
| C[C@]12CC[C@@H]3c4ccc(O)cc4CC[C@H]3[C@@H]1C[C@@H](O)[C@@H]2O [estriol] | 0.13 nM |
| C[C@]12CC[C@@H]3c4ccc(O)cc4CC[C@H]3[C@@H]1CCC2=O [estrone] | 0.36 nM |

same assay, conditions: estrogenic activity by the alkaline phosphatase method; reference standards; read-out: ED50 values (95% C.I.)

| SMILES | EC50 |
| --- | --- |
| C[C@]12CC[C@@H]3c4ccc(O)cc4CC[C@H]3[C@@H]1CC[C@H]2O [17α-estradiol] | 1.42 nM |

target: T1, estrogen receptor (Homo sapiens, UniProt P03372); experiment: In vitro estrogen receptor binding assay; conditions: not given
T1 construct: expressed in transfected cells; host or cells: CHO cells (ribosome-free cytosol)
T1 sequence (P03372 1-595): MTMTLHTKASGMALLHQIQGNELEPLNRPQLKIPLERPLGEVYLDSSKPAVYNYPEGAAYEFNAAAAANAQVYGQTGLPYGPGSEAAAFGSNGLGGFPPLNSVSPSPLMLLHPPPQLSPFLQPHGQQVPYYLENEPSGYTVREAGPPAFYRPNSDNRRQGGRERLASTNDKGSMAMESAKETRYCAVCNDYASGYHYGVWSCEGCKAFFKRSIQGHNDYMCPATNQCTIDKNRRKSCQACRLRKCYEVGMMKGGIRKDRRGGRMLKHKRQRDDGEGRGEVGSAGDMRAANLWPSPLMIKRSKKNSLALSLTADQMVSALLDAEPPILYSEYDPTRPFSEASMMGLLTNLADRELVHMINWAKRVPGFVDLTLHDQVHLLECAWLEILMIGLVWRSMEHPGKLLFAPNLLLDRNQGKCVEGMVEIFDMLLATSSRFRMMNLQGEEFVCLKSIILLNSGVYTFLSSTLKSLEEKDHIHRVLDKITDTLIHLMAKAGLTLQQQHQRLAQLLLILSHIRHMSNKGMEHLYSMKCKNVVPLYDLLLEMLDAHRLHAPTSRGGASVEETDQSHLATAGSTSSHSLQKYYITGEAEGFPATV
Experimental: CHO cells overexpressing the estrogen receptor were grown in 150 mm^2 dishes in DMEM + 10% dextran coated charcoal, stripped fetal bovine serum. The plates were washed twice with PBS and once with 10mM Tris-HCl, pH 7.4, 1mM EDTA. Cells were harvested by scraping the surface and then the cell suspension was placed on ice. Cells were disrupted with a hand-held motorized tissue grinder using two, 10-second bursts. […] The cytosol was then frozen and stored at -80°C. Protein concentration of the cytosol was estimated using the BCA assay with reference standard protein.
100uG/100uL of the receptor preparation was aliquoted per well. […] The plate was incubated at room temperature for 2.5 h. […] 200 uL of the supernatant solution was then removed for scintillation counting. Samples were counted to 2% or 10 minutes, whichever occurs first. […] Also, wells containing radioactivity but no cytosol were processed with charcoal to estimate unremovable DPM of [^3H]
Counts per minute (CPM) of radioactivity were automatically converted to disintegrated per minute (DPM) by the Beckman LS 7500 Scintillation Counter using a set of quenched standards to generate a H No. for each sample.
For the generation of IC50 curves, % binding is plotted vs compound. […] For a description of these methods, see Hulme, E.C., ed. […] Receptor-Ligand Interactions: A Practical Approach. IRL Press, New York.(see especially chapter 8).

| SMILES | IC50 |
| --- | --- |
| Cc1c(-c2ccc(O)cc2)n(Cc2ccc(OCCN(C(C)C)C(C)C)cc2)c2ccc(O)cc12 [Example No. 104, 1-[4-(2-Diisopropylamino-ethoxy)-benzyl]-2-(4-hydroxy-phenyl)-3-methyl-1H-indol-5-ol] | 100 nM |

same assay, conditions: competition with [3H]17β-estradiol; cytosol of CHO cells overexpressing the estrogen receptor; read-out: Receptor Binding IC50's

| SMILES | IC50 |
| --- | --- |
| CCCCN(C)CCOc1ccc(Cn2c(-c3ccc(O)cc3)c(C)c3cc(O)ccc32)cc1 [Example No. 105] | 28 nM |
| Cc1c(-c2ccc(O)cc2)n(Cc2ccc(OCC[N+](C)(C)C)cc2)c2ccc(O)cc12 [Example No. 106, 2-(4-Hydroxy-phenyl)-3-methyl-1-[4-(2-dimethyl-1-yl-ethoxy)-benzyl]-1H-indol-5-ol methiodide] | 100 nM |

same assay, conditions: read-out: Receptor Binding IC50's

| SMILES | IC50 |
| --- | --- |
| Cc1c(-c2ccccc2)n(Cc2ccc(OCCN3CCCCC3)cc2)c2ccccc12 [Example No. 85, 4-{3-Methyl-1-[4-(2-piperidin-1-yl-ethoxy)-benzyl]-1H-indole}] | 450 nM |
| Cc1c(-c2ccc(O)cc2)n(Cc2ccc(OCCN3CCCCC3)cc2)c2ccccc12 [Example No. 86, 4-{3-Methyl-1-[4-(2-piperidin-1-yl-ethoxy)-benzyl]-1H-indol-2-yl}-phenol hydrochloride] | 120 nM |
| Cc1c(-c2ccccc2)n(Cc2ccc(OCCN3CCCCC3)cc2)c2ccc(O)cc12 [Example No. 87, 3-Methyl-2-phenyl-1-[4-(2-piperidine-1-yl-ethoxy)-benzyl]-1H-indol-5-ol] | 30 nM |
| COc1ccc2c(c1)c(C)c(-c1ccc(O)cc1)n2Cc1ccc(OCCN2CCCCC2)cc1 [Example No. 88, 4-{5-Methoxy-3-methyl-1-{4-[2-(piperidin-1-yl)-ethoxy]-benzyl}-1H-indol-2-yl}-phenol] | 350 nM |
| COc1ccc(-c2c(C)c3cc(O)ccc3n2Cc2ccc(OCCN3CCCCC3)cc2)cc1 [Example No. 89, 2-(4-methoxy-phenyl)-3-methyl-1-{4-[2-(piperidin-1-yl)-ethoxy]-benzyl}-1H-indol-5-ol] | 300 nM |
| COc1ccc(-c2c(C)c3cc(OC)ccc3n2Cc2ccc(OCCN3CCCCC3)cc2)cc1 [Example No. 90, 5-Methoxy-2-(4-methoxy-phenyl)-3-methyl-1-{4-(2-piperidin-1-yl-ethoxy)-benzyl]-1H-indole] | 600 nM |
| CCOc1ccc(-c2c(C)c3cc(O)ccc3n2Cc2ccc(OCCN3CCCCC3)cc2)cc1 [Example No. 92, 2-(4-Ethoxv-phenyl)-3-methyl-1-[4-(2-piperidin-1-yl-ethoxy)-benzyl]-1H-indol-5-ol] | 62 nM |
| CCOc1ccc(-c2c(C)c3cc(O)ccc3n2Cc2ccc(OCCN3CCCCCC3)cc2)cc1 [Example No. 93, 1-[4-(2-Azepan-1-yl-ethoxy)-benzyl]-2-(4-ethoxy-phenyl)-3-methyl-1H-indol-5-ol] | 90 nM |
| Cc1c(-c2ccc(O)cc2)n(Cc2ccc(OCCN3CCCCC3)cc2)c2ccc(F)cc12 [Example No. 94, 4-{5-Fluoro-3-methvl-1-[4-(2-piperidin-1-yl-ethoxy)-benzyl]-1H-indol-2-yl}-phenol] | 200 nM |
| CCCN(CCC)CCOc1ccc(Cn2c(-c3ccc(O)cc3)c(C)c3cc(O)ccc32)cc1 [Example No. 102, 1-[4-(2-Dipropylamino-ethoxy)-benzyl]-2-(4-hydroxy-phenyl)-3-methyl-1H-indol-5-ol] | 80 nM |
| CCCCN(CCCC)CCOc1ccc(Cn2c(-c3ccc(O)cc3)c(C)c3cc(O)ccc32)cc1 [Example No. 103, 1-[4-(2-Dibutylamino-ethoxy)-benzyl]-2-(4-hydroxy-phenyl)-3-methyl-1H-indol-5-ol] | 200 nM |
| Cc1c(-c2ccc(O)cc2)n(Cc2ccc(OCCN3CCCCC3C)cc2)c2ccc(O)cc12 (centres unmarked) [Example No. 108, 2-(4-Hydroxy-phenyl)-3-methyl-1-{4-[2-(2-methyl-piperidin-1-yl)-ethoxy]-benzyl}-1H-indol-5-ol] | 20 nM |
| Cc1c(-c2ccc(O)cc2)n(Cc2ccc(OCCN3CCC(C)CC3)cc2)c2ccc(O)cc12 [Example No. 110, 2-(4-Hydroxy-phenyl)-3-methyl-1-{4-[2-(4-methyl-piperidin-1-yl)-ethoxy]-benzyl}-1H-indol-5-ol] | 37 nM |
| Cc1c(-c2ccc(O)cc2)n(Cc2ccc(OCCN3CCCC(C)(C)C3)cc2)c2ccc(O)cc12 [Example No. 111, 1-{4-[2-(3,3-Dimethyl-piperidin-1-yl)-ethoxy]-benzyl}-2-(4-hydroxy-phenyl)-3-methyl-1H-indol-5-ol] | 150 nM |
| Cc1c(-c2ccc(O)cc2)n(Cc2ccc(OCCN3CCC(O)CC3)cc2)c2ccc(O)cc12 [Example No. 113, 2-(4-Hydroxy-phenyl)-1-{4-[2-(4-hydroxy-piperidin-1-yl)-ethoxy]-benzyl}-3-methyl-1H-indol-5-ol] | 47 nM |
| Cc1c(-c2ccc(O)cc2)n(Cc2ccc(OCCN3C[C@@H]4CC[C@H]3C4)cc2)c2ccc(O)cc12 [Example No. 114, (1S,4R)-1-{4-[2-(2-Aza-bicyclo [2.2.1]hept-2-yl)-ethoxy]-benzyl}-2-(4-hydroxy-phenyl)-3-methyl-1H-indol-5-ol] | 1 nM |
| Cc1c(-c2ccc(O)cc2)n(Cc2ccc(OCCN3CC4(C)CC3CC(C)(C)C4)cc2)c2ccc(O)cc12 (centres unmarked) [Example No. 115, 2-(4-Hydroxy-phenyl)-3-methyl-1-{4-[2-(1,3,3-trimethyl-6-aza-bicyclo[3.2.1]oct-6-yl)-ethoxy]-benzyl}-1H-indol-5-ol] | 150 nM |
| Cc1c(-c2ccc(F)cc2)n(Cc2ccc(OCCN3CCCCC3)cc2)c2ccc(O)cc12 [Example No. 116, 2-(4-Fluoro-phenyl)-3-methyl-1-[4-(2-piperidine-1-yl-ethoxy)-benzyl]-1H-indol-5-ol] | 40 nM |
| Cc1c(-c2ccc(F)cc2)n(Cc2ccc(OCCN3CCCCCC3)cc2)c2ccc(O)cc12 [Example No. 117, 1-[4-(2-Azepan-1-yl-ethoxy)-benzyl]-2-(4-fluoro-phenyl)-3-methyl-1H-indol-5-ol] | 100 nM |
| Cc1c(-c2ccc3c(c2)OCO3)n(Cc2ccc(OCCN3CCCCC3)cc2)c2ccc(O)cc12 [Example No. 119, 2-Benzo[1,3]dioxol-5-yl-3-methyl-1-[4-(2-piperidin-1-yl-ethoxy)-benzyl]-1H-indol-5-ol] | 70 nM |
